# Data reported in PubChem BioAssay AID220 (DTP/NCI, 2004).
# “And” between values parts separate entries of the source, which are not always exact repeats. Identical values can stand only once. Records with an inconclusive call do not appear.
# Test system: CD8F1 mice, subcutaneous mammary adenocarcinoma, T/C%
# Assay: NCI In Vivo Anticancer Drug Screen. Data for tumor model Mammary Adenocarcinoma CD8F1 (subcutaneous) in CD8F1
# Conditions: higher = larger tumour
# How it was run: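 Tumor-bearing mice, transplantable model; readout survival or tumor size; value = treated (T) / vehicle control (C).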
structure (smiles),measurement,setting,value
CCc1ccccc1N1CCN(C(=O)c2cc(OC)c(OC)c(OC)c2)CC1,T/C,"endpoint: median tumor weight (est.), dose: 12.5 mg/kg/injection, schedule: Q07DX003 (ip), vehicle: Klucel (hydroxypropylcellulose) (HPC)",68 % of control
same,T/C,"endpoint: median tumor weight (est.), dose: 12.5 mg/kg/injection, schedule: Q07DX004 (ip), vehicle: Klucel (hydroxypropylcellulose) (HPC)",50 % of control
same,T/C,"endpoint: median tumor weight (est.), dose: 50.0 mg/kg/injection, schedule: Q04DX005 (ip), vehicle: Klucel (hydroxypropylcellulose) (HPC)",167 % of control and 269 % of control
same,T/C,"endpoint: median tumor weight (est.), dose: 50.0 mg/kg/injection, schedule: Q07DX003 (ip), vehicle: Klucel (hydroxypropylcellulose) (HPC)",182 % of control
same,T/C,"endpoint: median tumor weight (est.), dose: 100.0 mg/kg/injection, schedule: Q04DX005 (ip), vehicle: Klucel (hydroxypropylcellulose) (HPC)",152 % of control and 206 % of control
same,T/C,"endpoint: median tumor weight (est.), dose: 100.0 mg/kg/injection, schedule: Q07DX003 (ip), vehicle: Klucel (hydroxypropylcellulose) (HPC)",112 % of control
same,T/C,"endpoint: median tumor weight (est.), dose: 100.0 mg/kg/injection, schedule: Q07DX004 (ip), vehicle: Klucel (hydroxypropylcellulose) (HPC)",274 % of control
same,T/C,"endpoint: median tumor weight (est.), dose: 200.0 mg/kg/injection, schedule: Q07DX003 (ip), vehicle: Klucel (hydroxypropylcellulose) (HPC)",111 % of control
same,T/C,"endpoint: median tumor weight (est.), dose: 400.0 mg/kg/injection, schedule: Q04DX005 (ip), vehicle: Klucel (hydroxypropylcellulose) (HPC)",44 % of control
same,T/C,"endpoint: median tumor weight (est.), dose: 400.0 mg/kg/injection, schedule: Q07DX003 (ip), vehicle: Klucel (hydroxypropylcellulose) (HPC)",36 % of control
C=C(C)[C@]12CC(C)C34OC(/C=C\C=C\CCCCCCCCC)(O[C@@H]1[C@@H]3[C@@H]1O[C@]1(CO)[C@@H](O)[C@]1(O)C(=O)C(C)=C[C@@H]41)O2 (stereo not given in full),T/C,"endpoint: median tumor weight (est.), dose: 0.37 mg/kg/injection, schedule: Q07DX002 (ip), vehicle: saline + alcohol",110 % of control
same,T/C,"endpoint: median tumor weight (est.), dose: 0.37 mg/kg/injection, schedule: Q07DX005 (ip), vehicle: saline + alcohol",82 % of control
same,T/C,"endpoint: median tumor weight (est.), dose: 0.75 mg/kg/injection, schedule: Q07DX002 (ip), vehicle: saline + alcohol",121 % of control
same,T/C,"endpoint: median tumor weight (est.), dose: 0.75 mg/kg/injection, schedule: Q07DX005 (ip), vehicle: saline + alcohol",116 % of control
same,T/C,"endpoint: median tumor weight (est.), dose: 1.5 mg/kg/injection, schedule: Q07DX002 (ip), vehicle: saline + alcohol",201 % of control
same,T/C,"endpoint: median tumor weight (est.), dose: 1.5 mg/kg/injection, schedule: Q07DX005 (ip), vehicle: saline + alcohol",72 % of control
N/C=N/O,T/C,"endpoint: median tumor weight (est.), dose: 25.0 mg/kg/injection, schedule: Q07DX005 (ip), vehicle: saline",109 % of control
same,T/C,"endpoint: median tumor weight (est.), dose: 50.0 mg/kg/injection, schedule: Q07DX005 (ip), vehicle: saline",181 % of control
same,T/C,"endpoint: median tumor weight (est.), dose: 100.0 mg/kg/injection, schedule: Q07DX005 (ip), vehicle: saline",164 % of control
same,T/C,"endpoint: median tumor weight (est.), dose: 200.0 mg/kg/injection, schedule: Q07DX005 (ip), vehicle: saline",105 % of control
same,T/C,"endpoint: median tumor weight (est.), dose: 400.0 mg/kg/injection, schedule: Q07DX005 (ip), vehicle: saline",97 % of control
same,T/C,"endpoint: median tumor weight (est.), dose: 600.0 mg/kg/injection, schedule: Q07DX005 (ip), vehicle: saline",78 % of control
CC1=NNC(=O)C1CCO (stereo not given),T/C,"endpoint: median tumor weight change, dose: 450.0 mg/kg/injection, schedule: Q01DX001 (ip), vehicle: Klucel (hydroxypropylcellulose) (HPC)",102 % of control
same,T/C,"endpoint: median tumor weight change, dose: 900.0 mg/kg/injection, schedule: Q01DX001 (ip), vehicle: Klucel (hydroxypropylcellulose) (HPC)",157 % of control
same,T/C,"endpoint: median tumor weight change, dose: 1800.0 mg/kg/injection, schedule: Q01DX001 (ip), vehicle: Klucel (hydroxypropylcellulose) (HPC)",189 % of control
same,T/C,"endpoint: median tumor weight change, dose: 3600.0 mg/kg/injection, schedule: Q01DX001 (ip), vehicle: Klucel (hydroxypropylcellulose) (HPC)",80 % of control
CC(=O)Nc1ccc(Nc2ccc(C(=C3C=CC(=[N+](C)CCC#N)C=C3)c3ccc(N(C)CCC#N)cc3)cc2)cc1,T/C,"endpoint: median tumor weight change, dose: 125.0 mg/kg/injection, schedule: Q01DX001 (ip), vehicle: saline with Tween-80",67 % of control
Cc1cc(NCCN(C(C)C)C(C)C)nc(/N=C(\N)Nc2ccc(Cl)c(C(F)(F)F)c2)n1,T/C,"endpoint: median tumor weight change, dose: 12.5 mg/kg/injection, schedule: Q01DX001 (ip), vehicle: Klucel (hydroxypropylcellulose) (HPC)",39 % of control and 45 % of control
same,T/C,"endpoint: median tumor weight change, dose: 50.0 mg/kg/injection, schedule: Q01DX001 (ip), vehicle: Klucel (hydroxypropylcellulose) (HPC)",27 % of control and 39 % of control
same,T/C,"endpoint: median tumor weight change, dose: 100.0 mg/kg/injection, schedule: Q01DX001 (ip), vehicle: Klucel (hydroxypropylcellulose) (HPC)",50 % of control and 74 % of control
CC(Cc1ccc(O)cc1)NCC(O)c1ccc(O)c(O)c1 (stereo not given),T/C,"endpoint: median tumor weight (est.), dose: 12.5 mg/kg/injection, schedule: Q07DX005 (ip), vehicle: saline with Tween-80",49 % of control
same,T/C,"endpoint: median tumor weight (est.), dose: 25.0 mg/kg/injection, schedule: Q07DX005 (ip), vehicle: saline with Tween-80",90 % of control
same,T/C,"endpoint: median tumor weight (est.), dose: 50.0 mg/kg/injection, schedule: Q07DX005 (ip), vehicle: saline with Tween-80",106 % of control
same,T/C,"endpoint: median tumor weight (est.), dose: 200.0 mg/kg/injection, schedule: Q07DX005 (ip), vehicle: saline with Tween-80",110 % of control
same,T/C,"endpoint: median tumor weight (est.), dose: 400.0 mg/kg/injection, schedule: Q07DX005 (ip), vehicle: saline with Tween-80",84 % of control
